Measured values published in patent US11840686B2, “Modulation of prekallikrein (PKK) expression” (Ionis Pharmaceuticals, Inc., priority 2013, dated 2023).
Strand notation (5' to 3'): a small letter for the sugar, then the base; units joined by * are phosphorothioate-linked, units joined directly phosphodiester-linked; [ ] holds rarer units or linkages, { } end groups; capitals alone tell only the bases. e = 2'-O-(2-methoxyethyl) (MOE); [5mC] = 5-methylcytosine; d = 2'-deoxy (DNA)

Each substance was assayed on human PKK mRNA (assay: Antisense inhibition of human PKK mRNA in HepaRG cells, 3,000 nM (Example 1)). Details: Table 3; HepaRG cells, electroporation with 3,000 nM antisense oligonucleotide, approx. 24 hours; PKK mRNA by RT-PCR (RTS3454), relative to untreated control cells.
Format: cell-based
Summary of the method: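 Values give percent PKK mRNA reduction relative to untreated controls, normalised to RIBOGREEN total RNA. mRNA was quantified by real-time PCR (RTS3454) about 24 h after electroporation. Each 20-mer MOE gapmer was delivered at 3,000 nM into 20,000 HepaRG cells per well.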

| Substance | % inhibition |
| --- | --- |
| 531125 (antisense eA*e[5mC]*eT*e[5mC]*eG*d[5mC]*d[5mC]*dT*dT*dT*dG*dT*dG*dA*d[5mC]*eT*e[5mC]*eG*eA*eT) [compound 531125] | 23% |
| 531126 (antisense eT*eT*eT*eT*eG*dA*dA*dT*d[5mC]*dT*dT*d[5mC]*dA*dT*dT*e[5mC]*eA*eA*eA*eG) [compound 531126] | 0% |
| 531127 (antisense e[5mC]*eA*eG*eA*eG*d[5mC]*d[5mC]*dT*dT*dG*dA*dT*d[5mC]*dA*dG*eA*eA*eT*eA*eA) [compound 531127] | 12% |
| 531128 (antisense eA*eA*eG*eT*eT*d[5mC]*d[5mC]*dA*d[5mC]*d[5mC]*dT*dT*d[5mC]*dT*dA*eA*e[5mC]*eT*eG*eG) [compound 531128] | 18% |
| 531129 (antisense eA*eG*e[5mC]*eA*eG*d[5mC]*dT*d[5mC]*dA*d[5mC]*dA*d[5mC]*d[5mC]*d[5mC]*dA*eA*eA*eA*eA*eG) [compound 531129] | 0% |
| 531130 (antisense eT*eT*e[5mC]*eT*eG*dT*dG*dT*d[5mC]*dA*dA*dT*dT*dA*dT*eA*eA*eA*e[5mC]*eA) [compound 531130] | 0% |
| 531131 (antisense eT*eA*eG*eA*eA*dA*dG*dA*dG*dT*dA*dA*dG*d[5mC]*d[5mC]*eT*eT*e[5mC]*eA*e[5mC]) [compound 531131] | 0% |
| 531132 (antisense eA*eG*eT*eG*eA*dG*dG*dT*dT*dA*d[5mC]*dT*d[5mC]*dA*d[5mC]*e[5mC]*eA*eG*eA*eG) [compound 531132] | 0% |
| 531133 (antisense eT*eT*eT*eT*eG*dT*dT*dG*dT*dG*d[5mC]*dA*dG*dA*d[5mC]*eT*eG*eA*eA*eA) [compound 531133] | 19% |
| 531134 (antisense eT*eT*eA*e[5mC]*e[5mC]*d[5mC]*dA*dT*d[5mC]*dA*dA*dA*dG*d[5mC]*dA*eG*eT*eG*eG*eG) [compound 531134] | 6% |
| 531135 (antisense eA*eA*eT*eG*eT*dT*dG*dT*dG*dA*dA*dT*dA*d[5mC]*d[5mC]*eA*eT*e[5mC]*e[5mC]*e[5mC]) [compound 531135] | 16% |
| 531136 (antisense eT*eA*eA*e[5mC]*eA*dT*dT*dT*d[5mC]*dT*dA*dT*dG*dG*dG*e[5mC]*e[5mC]*eT*eG*eA) [compound 531136] | 6% |
| 531137 (antisense eT*eG*eT*e[5mC]*eT*dA*d[5mC]*dT*dA*dT*dT*dT*dG*dA*d[5mC]*e[5mC]*eA*eA*eT*eA) [compound 531137] | 19% |
| 531138 (antisense eT*eT*eT*eA*eA*dA*dT*dG*dT*dG*dT*d[5mC]*dA*d[5mC]*dT*eT*eA*eA*eT*e[5mC]) [compound 531138] | 0% |
| 531139 (antisense eT*e[5mC]*eA*e[5mC]*eT*dA*dA*dA*dA*d[5mC]*dA*dA*dA*dA*dA*eT*eA*e[5mC]*eT*eT) [compound 531139] | 0% |
| 531140 (antisense eT*e[5mC]*eT*eT*e[5mC]*d[5mC]*dA*dG*dG*d[5mC]*d[5mC]*dA*dA*d[5mC]*d[5mC]*eA*e[5mC]*e[5mC]*eT*eT) [compound 531140] | 22% |
| 531141 (antisense eT*eG*e[5mC]*eA*eA*dG*dG*d[5mC]*dA*dT*dG*dT*dG*dT*dG*e[5mC]*eA*e[5mC]*eA*eA) [compound 531141] | 47% |
| 531142 (antisense eT*eG*eT*eT*eT*dA*dA*dA*dA*dT*dA*dT*d[5mC]*dT*d[5mC]*eT*eA*eT*eA*e[5mC]) [compound 531142] | 8% |

| Substance | % inhibition |
| --- | --- |
| 531143 (antisense e[5mC]*eA*eT*eG*eG*dA*dA*dA*dA*dA*dT*dT*dA*dA*dG*e[5mC]*eT*e[5mC]*eA*eT) [compound 531143] | 0% |
| 531144 (antisense eT*eG*eA*eA*eG*dA*dT*dT*d[5mC]*dT*dA*dT*dT*dT*dA*eA*e[5mC]*eA*eA*eA) [compound 531144] | 0% |
| 531145 (antisense eG*e[5mC]*e[5mC]*eT*eA*dG*dG*dA*dG*dA*dG*dA*dA*dA*dA*eA*eT*eA*eA*eA) [compound 531145] | 0% |
| 531146 (antisense e[5mC]*e[5mC]*eA*eG*eT*dG*dT*dA*dA*dT*dT*d[5mC]*dA*dA*dA*eG*eG*eA*eG*e[5mC]) [compound 531146] | 40% |
| 531147 (antisense e[5mC]*e[5mC]*eA*eT*eT*dA*dT*dT*dT*d[5mC]*d[5mC]*dA*dT*d[5mC]*dA*e[5mC]*e[5mC]*eT*eG*e[5mC]) [compound 531147] | 18% |
| 531148 (antisense eT*eA*e[5mC]*e[5mC]*e[5mC]*dA*dA*dA*dT*dT*dA*dT*dA*d[5mC]*d[5mC]*eT*eG*eG*eA*eA) [compound 531148] | 8% |
| 531149 (antisense eA*eG*eA*eG*eG*dT*dA*dA*dA*dG*d[5mC]*dA*dA*d[5mC]*dT*eT*eG*e[5mC]*e[5mC]*e[5mC]) [compound 531149] | 45% |
| 531150 (antisense eT*e[5mC]*e[5mC]*eT*eT*dA*dA*dT*dA*dG*dT*d[5mC]*dA*dT*dA*eG*e[5mC]*eA*eG*eG) [compound 531150] | 48% |
| 531151 (antisense eT*e[5mC]*eA*e[5mC]*e[5mC]*dA*d[5mC]*d[5mC]*dA*dT*dT*dT*dT*dT*d[5mC]*eA*e[5mC]*eA*eT*eG) [compound 531151] | 44% |
| 531152 (antisense eG*eT*eT*eA*eT*dG*dG*dA*dT*dA*dT*dA*dG*dA*d[5mC]*eT*eT*eT*eA*eA) [compound 531152] | 0% |
| 531153 (antisense e[5mC]*eT*eA*eG*eA*dA*dG*d[5mC]*dA*dA*dT*dA*dT*dT*dT*eA*eA*eA*eG*e[5mC]) [compound 531153] | 0% |
| 531154 (antisense eA*eT*eG*eA*eA*dG*dT*dA*dA*dG*dA*dT*dG*d[5mC]*dT*eT*eA*eA*eA*eA) [compound 531154] | 16% |
| 531155 (antisense e[5mC]*eT*eT*e[5mC]*eT*dT*dG*dT*d[5mC]*dT*d[5mC]*dA*dG*dA*dT*eT*eA*e[5mC]*e[5mC]*eA) [compound 531155] | 79% |
| 531156 (antisense eT*e[5mC]*eT*eG*eA*dA*dA*dA*dG*d[5mC]*d[5mC]*d[5mC]*dT*d[5mC]*d[5mC]*eG*eA*eG*e[5mC]*eT) [compound 531156] | 0% |
| 531157 (antisense eA*eA*eG*eT*eG*dA*dA*dT*d[5mC]*dA*dG*dA*dG*d[5mC]*dA*eG*eT*eG*eT*eA) [compound 531157] | 46% |
| 531158 (antisense eA*e[5mC]*e[5mC]*eT*eT*dA*d[5mC]*dA*dA*dG*d[5mC]*dA*dT*d[5mC]*dT*eT*eT*eT*e[5mC]*e[5mC]) [compound 531158] | 41% |
| 531159 (antisense eA*eT*eT*eT*eG*dT*dT*dA*dA*dA*dA*dG*dT*dT*dG*e[5mC]*eT*eT*eA*eT) [compound 531159] | 0% |
| 531160 (antisense eT*eG*eA*eT*eA*dT*d[5mC]*dA*dT*d[5mC]*dA*dT*d[5mC]*d[5mC]*d[5mC]*eA*eA*eT*eG*eA) [compound 531160] | 13% |

Same assay, conditions: Table 4; HepaRG cells, electroporation with 3,000 nM antisense oligonucleotide, approx. 24 hours; PKK mRNA by RT-PCR (RTS3454), relative to untreated control cells

| Substance | % inhibition |
| --- | --- |
| 531161 (antisense e[5mC]*eA*eG*eA*e[5mC]*dA*d[5mC]*d[5mC]*dT*dT*d[5mC]*dT*dT*d[5mC]*dA*e[5mC]*eA*eA*eG*eG) [compound 531161] | 40% |
| 531162 (antisense eA*eA*eT*eT*eT*d[5mC]*d[5mC]*d[5mC]*dA*dG*dA*dT*dG*dT*dA*eT*eT*eA*eG*eT) [compound 531162] | 43% |
| 531163 (antisense eT*e[5mC]*eA*eG*e[5mC]*dA*dG*dA*dA*dA*dT*d[5mC]*dA*dT*dG*eT*eA*eG*eG*e[5mC]) [compound 531163] | 60% |
| 531164 (antisense eT*eT*eA*eA*eA*dT*dA*dT*dA*dA*dA*dG*dA*dG*dA*eT*e[5mC]*e[5mC]*eT*e[5mC]) [compound 531164] | 38% |
| 531165 (antisense eG*eT*eA*eA*eT*dA*dA*dA*dA*dG*dG*dA*dA*dT*dG*eA*eT*eA*eA*eA) [compound 531165] | 0% |
| 531166 (antisense eA*eG*eA*e[5mC]*eA*dG*dT*dA*dA*dA*d[5mC]*dA*dA*dA*dA*eT*e[5mC]*eA*eG*eG) [compound 531166] | 12% |
| 531167 (antisense e[5mC]*eA*eA*eG*eA*dA*dA*d[5mC]*d[5mC]*dA*d[5mC]*d[5mC]*dA*dA*dA*eG*eG*eA*eA*eG) [compound 531167] | 37% |
| 531168 (antisense eA*e[5mC]*e[5mC]*e[5mC]*e[5mC]*dA*dA*d[5mC]*dA*dG*dA*d[5mC]*dA*dG*d[5mC]*e[5mC]*e[5mC]*eA*e[5mC]*e[5mC]) [compound 531168] | 55% |
| 531169 (antisense eT*eG*eG*eG*e[5mC]*dT*d[5mC]*dA*d[5mC]*d[5mC]*d[5mC]*d[5mC]*dA*dG*dT*eG*eG*eA*e[5mC]*e[5mC]) [compound 531169] | 54% |
| 531170 (antisense eG*e[5mC]*e[5mC]*eT*eG*dG*d[5mC]*d[5mC]*d[5mC]*d[5mC]*d[5mC]*dA*dA*dG*dA*e[5mC]*eT*e[5mC]*eT*eA) [compound 531170] | 54% |
| 531171 (antisense eA*eG*eG*e[5mC]*e[5mC]*dT*dG*d[5mC]*d[5mC]*dA*d[5mC]*dA*dG*dG*d[5mC]*e[5mC]*eA*eG*eA*e[5mC]) [compound 531171] | 40% |
| 531173 (antisense eA*eA*eA*eA*eT*dA*dA*d[5mC]*dT*dT*d[5mC]*dA*d[5mC]*dT*dA*eG*eA*eG*e[5mC]*eT) [compound 531173] | 22% |
| 531174 (antisense eT*eG*eT*eT*eA*dA*dG*dT*dA*dT*dA*dT*dT*dA*dA*e[5mC]*eT*eA*eT*eT) [compound 531174] | 10% |
